Source: patent publication US20130231309A1, “TREATMENT OF INFLAMMATION AND ORGAN DYSFUNCTION” (THE REGENTS OF THE UNIVERSITY OF CALIFORNIA, priority 2005, published 2013)

How the values were obtained:
[1] = test system: MMP-1 (collagenase-1) and MMP-9 (gelatinase B); assay: In-vivo zymography of mesentery with fluorogenic substrate; set-up: species or system rat; details: EDTA 5 mM applied to mesentery
Procedure: Measurement of MMP-1,9 activity was obtained by superfusion of the mesentery with fluorogenic substrate (0.5 μmol/L; catalogue number D2293, Sigma-Aldrich Inc., St. Louis, Mo.) added to the suffusate. The substrate was cleaved by MMP-1 (collagenase-1) and MMP-9 (gelatinase B). The mesentery was loaded with substrate 10 minutes prior to image collection and continuously suffused with substrate throughout the experiment. The associated fluorescence was visualized by epi-illumination at 280 nm passing through a 340 nm emission filter on a fluorescent intravital microscope (Leica), and recorded digitally for measurement of fluorescent intensity. Light intensity of the emitted fluorescent light was recorded in digital units (1-256) after subtraction of background intensity in the absence of the tissue with standardized microscope settings. Reproducibility of these measurements as determined by repeated measurements on the same specimen was within 3%.

[2] = WKY and SHR central hemodynamics (arterial blood pressure via femoral artery catheter, heart rate) after chronic doxycycline; assay type: in vivo, rat; details: for Mean Blood Pressure: doxycycline 55 mg/liter in drinking water (~5.4 mg/kg/day); for Diastolic Blood Pressure / Heart Rate / Systolic Blood Pressure: doxycycline in drinking water; for Mean Arterial Blood Pressure during Chronic MMP Inhibition: after MMP inhibition for 12 weeks, age 30 weeks
Procedure: Selected WKY and SHR were treated with doxycycline (55 mg/liter in drinking water, average consumption ˜5.4 mg/kg/day, West-Ward Pharmaceutical Corp., Eatontown, N.J.) for a period of 24 weeks. It should be noted that lower and higher concentrations are also effective. A range of effective does of about 1.0-20.0 mg/kg/day, resulting from the dissolution of about 5.5-220 mg of an MMP inhibitor per liter, may also be used to produce an effective result. Narrower ranges of MMP solute may also be used, for example, 75-180 mg, and 100 mg-150 mg. The ileocecal portion of the mesentery was prepared as described in Delano and Schmid-Schonbein, “The Glucocorticoid and Mineralocorticoid Receptor Distribution in a Microvascular Network of the Spontaneously Hypertensive Rat.” Briefly, arterial blood pressure was recorded via a femoral artery catheter. Individual sectors of mesentery were exposed via an abdominal midline incision while superfused with Krebs-Henseleit buffer (37° C., pH=7.4). The blood pressure of WKY and SHR was reduced by doxycycline treatment as shown below in Table 1, a trend that was detectable in terms of systolic, diastolic or mean blood pressure. […] In another experiment, and in order to explore the utility of chronic protease inhibition, a group of mature normotensive Wistar Kyoto rats (as well as a cohort of spontaneously hypertensive rats) were treated with a broad acting metafloproteases inhibitor (doxycycline, 55 mg/liter in drinking water, average consumption ˜5.4 mg/kg/day) over a period of 12 weeks until the age of 30 weeks.

[3] = Thymus weight normalized to body weight; assay type: in vivo, rat; details: chronic doxycycline, n = 5
From the text: The reduced apoptosis in the thymus by MMP blockade is also confirmed by direct measurements of the organ weight (shown in Table 6).

[4] = test system: apoptotic cells in thymus, kidney, skeletal muscle; assay: Apoptosis by TUNEL / propidium iodide labeling of frozen tissue sections; assay type: in vivo, rat; details: chronic doxycycline; for Fraction Of Apoptotic Cells, Thymus: tissue area of 10,000 μm^2
Procedure: A subsequent study was performed to consider the reduction of cell apoptosis after chronic MMP inhibition. In addition to the dramatic reduction of blood pressure, free radical production, membrane receptor cleavage and other pathophysiological parameters (described elsewhere) that point towards organ injury in the SHR, cell apoptosis was also considered after MMP inhibition. […] For this purpose, a novel digital technique was introduced to determine nuclear fragmentation on freshly-harvested frozen tissue sections labeled for DNA breaks with the TUNEL technique and with propidium iodide (PI) for the detection of cell nuclei (see FIG. 9). […] PI-positive nuclei (B) are used to identify the total number of cells in the fields. Their image is superimposed on the bright field image of TUNEL-positive nuclei (dark brown color in A) to determine digitally the light absorption due to the TUNEL label (shown in green in panels C) and the level of apoptosis (C).

[5] = Blood cell counts (hematocrit, total leukocyte count); assay type: in vivo, rat; details: for Leukocyte Count: doxycycline in drinking water
Procedure: Selected WKY and SHR were treated with doxycycline (55 mg/liter in drinking water, average consumption ˜5.4 mg/kg/day, West-Ward Pharmaceutical Corp., Eatontown, N.J.) for a period of 24 weeks. It should be noted that lower and higher concentrations are also effective. A range of effective does of about 1.0-20.0 mg/kg/day, resulting from the dissolution of about 5.5-220 mg of an MMP inhibitor per liter, may also be used to produce an effective result. Narrower ranges of MMP solute may also be used, for example, 75-180 mg, and 100 mg-150 mg. Fresh leukocytes were fixed on a blood smear in whole blood (using heparin as anticoagulant, 10 U/ml) with formalin solution and […] (10%, neutral buffered, 1 hr). Total leukocyte count was determined with a hemocytometer, and hematocrit was centrifuged in microhematocrit tubes. Neutrophils were separated in a density gradient (Histopaque-1077, Sigma Aldrich, spun at 42 g for 5 min).

[6] = test system: plasma proteases (metallo-, serine, acid and sulfhydryl proteases); assay: Plasma protease activity (fluorescent protease assay kit, Enzchek); assay type: in vivo, rat; details: after MMP inhibition for 12 weeks, age 30 weeks
Procedure: Fresh plasma samples were frozen (−60 C) until measurements were taken. On the day of the experiment, the samples were unfrozen and tested simultaneously for overall protease activity with fluorescent protease assay kit (Enzchek, Cat #E-6638, Molecular Probes). The substrate was cleaved by a range of proteases (metallo-, serine, acid and sulfhydryl proteases). Protease activity was determined from fluorescent intensity after peptide cleavage (in fluorescent units). In another experiment, and in order to explore the utility of chronic protease inhibition, a group of mature normotensive Wistar Kyoto rats (as well as a cohort of spontaneously hypertensive rats) were treated with a broad acting metafloproteases inhibitor (doxycycline, 55 mg/liter in drinking water, average consumption ˜5.4 mg/kg/day) over a period of 12 weeks until the age of 30 weeks.

O=C(O)CN(CCN(CC(=O)O)CC(=O)O)CC(=O)O [EDTA, ethylenediaminetetraacetic acid]
Fluorescent intensity generated by the fluorogenic substrate [1]: undetectable

C[C@H]1c2cccc(O)c2C(=O)C2=C(O)[C@]3(O)C(=O)C(C(N)=O)=C(O)[C@@H](N(C)C)[C@@H]3[C@@H](O)[C@@H]21 [doxycycline]
Mean Blood Pressure ([2]; SHR, n = 7): 126.3 ± 13.5 mmHg
Diastolic Blood Pressure ([2]; SHR): 99.4 ± 17.3 mmHg
Heart Rate ([2]; SHR): 398 ± 60 beats/min
Systolic Blood Pressure ([2]; SHR): 161.9 ± 14.5 mmHg
Mean Arterial Blood Pressure during Chronic MMP Inhibition ([2]; Spontaneously Hypertensive rat): 126.3 ± 13.5 mmHg
Mean Blood Pressure ([2]; WKY rats, n = 6): 95.7 ± 8.5 mmHg
Diastolic Blood Pressure ([2]; WKY rats): 77.4 ± 6.8 mmHg
Heart Rate ([2]; WKY rats): 364 ± 30 beats/min
Systolic Blood Pressure ([2]; WKY rats): 125.3 ± 10.6 mmHg
Arterial pressure after treatment, relative to the Wistar rat ([2]; WKY rats, Wistar rat about 105 mmHg): < 105 mmHg
Mean Arterial Blood Pressure during Chronic MMP Inhibition ([2]; Wistar Kyoto rat): 95.7 ± 8.5 mmHg
Thymus Weight Normalized With Respect To Body Weight ([3]; SHR): 87.4 ± 3.3 mg/100 g body wt
Thymus Weight Normalized With Respect To Body Weight ([3]; WKY): 81.4 ± 7.4 mg/100 g body wt
Fraction Of Apoptotic Cells, Kidney ([4]; SHR): 12.8 ± 5.2%
Fraction Of Apoptotic Cells, Skeletal muscle ([4]; SHR): 1.7 ± 2.4 %
Fraction Of Apoptotic Cells, Thymus ([4]; SHR): 13.8 ± 9.1 %
Fraction Of Apoptotic Cells, Kidney ([4]; WKY): 5.1 ± 3.5%
Fraction Of Apoptotic Cells, Skeletal muscle ([4]; WKY): 1.4 ± 1.3%
Fraction Of Apoptotic Cells, Thymus ([4]; WKY): 4.7 ± 3.0%
Leukocyte count after treatment as share of its usually high count ([5]; SHR group): less than 50%
Leukocyte Count ([5]; SHR): 2532 ± 574
Leukocyte Count ([5]; WKY rats): 2737 ± 272*, **
Plasma Protease Activity During Chronic MMP Inhibition ([6]; Spontaneously Hypertensive rat): 472 ± 24 FU
Plasma Protease Activity During Chronic MMP Inhibition ([6]; Wistar Kyoto rat): 413 ± 40 FU
